Test results as given in US20250346564A1 (ARase Therapeutics Inc., priority 2022, published 2025).

Biological target: PARG (Homo sapiens (Human), UniProt Q86W56)
Assay: PARG TFMU assay (4-(trifluoromethyl)umbelliferone substrate)
Assay type: biochemical
Details: PARG 250 pM or 2 nM, 10-point dose response
Experimental: Example C. Inhibition of PARG TEMU Assay
The ability of the compounds of the Examples to inhibit PARG activity in 4. (trifluoromethyl)umbelliferone (TFMU) assay was determined as described below. PARG inhibitors were added into 384 well plate for a 10-point dose response curve at 1:3 dilutions. TFMU PARG substrate and PARG (250 pM or 2 nM) were then added to the plate to initiate enzymatic reaction. After incubation with the reagent, […] was read. IC50 values were calculated using set control points for 100% inhibition as no enzyme and 0% inhibition 250 pM or 2 nM of PARG enzyme.

Chain of PARG (Q86W56 whole entry): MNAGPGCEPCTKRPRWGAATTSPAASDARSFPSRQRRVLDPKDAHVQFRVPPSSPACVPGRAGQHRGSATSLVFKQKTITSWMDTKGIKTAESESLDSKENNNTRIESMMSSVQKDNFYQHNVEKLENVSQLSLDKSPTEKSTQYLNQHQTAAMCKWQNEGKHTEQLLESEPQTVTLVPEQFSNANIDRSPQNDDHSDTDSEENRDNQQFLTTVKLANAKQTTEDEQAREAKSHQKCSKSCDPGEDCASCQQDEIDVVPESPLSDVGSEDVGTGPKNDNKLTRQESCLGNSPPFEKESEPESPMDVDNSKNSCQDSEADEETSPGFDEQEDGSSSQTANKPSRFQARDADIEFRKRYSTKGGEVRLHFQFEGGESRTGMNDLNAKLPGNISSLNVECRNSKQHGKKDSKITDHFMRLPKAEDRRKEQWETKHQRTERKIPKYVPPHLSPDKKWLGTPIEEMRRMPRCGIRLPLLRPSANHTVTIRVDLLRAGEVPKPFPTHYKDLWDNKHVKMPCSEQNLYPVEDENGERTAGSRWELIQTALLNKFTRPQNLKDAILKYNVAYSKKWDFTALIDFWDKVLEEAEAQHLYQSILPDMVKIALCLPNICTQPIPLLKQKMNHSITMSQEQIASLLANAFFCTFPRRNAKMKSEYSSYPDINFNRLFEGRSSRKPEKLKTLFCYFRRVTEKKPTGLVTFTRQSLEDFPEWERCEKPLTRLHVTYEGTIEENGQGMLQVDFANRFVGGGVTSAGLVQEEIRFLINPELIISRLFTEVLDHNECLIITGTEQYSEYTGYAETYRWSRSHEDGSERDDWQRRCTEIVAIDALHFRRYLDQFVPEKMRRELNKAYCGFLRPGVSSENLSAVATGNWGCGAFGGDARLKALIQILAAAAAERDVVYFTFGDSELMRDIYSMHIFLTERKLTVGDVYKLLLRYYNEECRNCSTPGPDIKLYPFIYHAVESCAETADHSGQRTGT

Row | Compound | IC50
1 | CC(C)C(=O)N1CCN(c2cc(S(=O)(=O)N[C@@]3(C)CO[C@H]3C)cc3c2cnn3-c2nnc(C(F)F)s2)CC1 (single isomer, unassigned) [Example 27] | < 50 nM
2 | C=C[C@@H]1C[C@]1(C#N)NS(=O)(=O)c1ccc2c(c1)c(=O)n(CC)c(=O)n2CC (single isomer, unassigned) [Example 51] | ≥ 5000 nM
3 | C=C[C@@H]1C[C@@]1(C#N)NS(=O)(=O)c1ccc2c(c1)c(=O)n(CC)c(=O)n2CC (single isomer, unassigned) [Example 52] | ≥ 5000 nM
4 | CCn1c(=O)c2cc(S(=O)(=O)N[C@@]3(C#N)CO[C@H]3C)ccc2n(CC)c1=O (single isomer, unassigned) [Example 61] | 500 to 5000 nM
5 | CCn1c(=O)c2cc(S(=O)(=O)N[C@@H]3CC[C@H]3CO)ccc2n(CC)c1=O (single isomer, unassigned) [Example 74] | ≥ 5000 nM
6 | CCn1c(=O)c2cc(S(=O)(=O)N[C@H]3CC[C@@H]3CO)ccc2n(CC)c1=O (single isomer, unassigned) [Example 75] | ≥ 5000 nM
7 | CCn1c(=O)c2cc(S(=O)(=O)N[C@@]3(C#N)C[C@@H]3CO)ccc2n(CC)c1=O (single isomer, unassigned) [Example 78] | ≥ 5000 nM
8 | CC(C)C(=O)N1CCN(c2cc(S(=O)(=O)NC3(C)COC3)cc3c2cnn3-c2nnc(C(F)F)s2)C[C@@H]1C (single isomer, unassigned) [Example 79] | < 50 nM
9 | CC(C)C(=O)N1CCN(c2cc(S(=O)(=O)NC3(C)CCC3)cc3c2cnn3-c2nnc(C(F)F)s2)CC1 [Example 21, 1-(5-(difluoromethyl)-1,3,4-thiadiazol-2-yl)-4-(4-isobutyrylpiperazin-1-yl)-N-(1-methylcyclobutyl)-1H-indazole-6-sulfonamide] | 50 to 500 nM
10 | CC(C)C(=O)N1CCN(c2cc([S@TB20](=O)(=O)NC3(CF)COC3)cc3c2cnn3-c2nnc(C(F)F)s2)CC1 [Example 22, 1-(5-(difluoromethyl)-1,3,4-thiadiazol-2-yl)-N-(3-(fluoromethyl)oxetan-3-yl)-4-(4-isobutyrylpiperazin-1-yl)-1H-indazole-6-sulfonamide] | < 50 nM
11 | CC1(NS(=O)(=O)c2ccc3cnn(-c4nnc(C(F)F)s4)c3c2)COC1 [Example 23, 1-(5-(difluoromethyl)-1,3,4-thiadiazol-2-yl)-N-(3-methyloxetan-3-yl)-1H-indazole-6-sulfonamide] | 50 to 500 nM
12 | CC1(NS(=O)(=O)c2cc(Cl)c3cnn(-c4nnc(C(F)F)s4)c3c2)COC1 [Example 24] | 50 to 500 nM
13 | Cc1ncc(Cn2c(=O)[nH]c3ccc(S(=O)(=O)NC4(C#N)COC4)cc3c2=O)s1 [Example 25A, N-(3-cyanooxetan-3-yl)-3-((2-methylthiazol-5-yl)methyl)-2,4-dioxo-1,2,3,4-tetrahydroquinazoline-6-sulfonamide] | 50 to 500 nM
14 | Cc1ncc(Cn2c(=O)c3cc(S(=O)(=O)NC4(C#N)COC4)ccc3n(Cc3sc(C)nc3C)c2=O)s1 [Example 25B, N-(3-cyanooxetan-3-yl)-1-((2,4-dimethylthiazol-5-yl)methyl)-3-((2-methylthiazol-5-yl)methyl)-2,4-dioxo-1,2,3,4-tetrahydroquinazoline-6-sulfonamide] | 50 to 500 nM
15 | CN(C)c1cc(S(=O)(=O)NC2(C)COC2)cc2c1cnn2-c1nnc(C(F)F)s1 [Example 26, 1-(5-(difluoromethyl)-1,3,4-thiadiazol-2-yl)-4-(dimethylamino)-N-(3-methyloxetan-3-yl)-1H-indazole-6-sulfonamide] | 50 to 500 nM
16 | Cc1ncc(Cn2c(=O)[nH]c3ccc(S(=O)(=O)NC4(CF)COC4)cc3c2=O)s1 [Example 28A, N-(3-(fluoromethyl)oxetan-3-yl)-3-((2-methylthiazol-5-yl)methyl)-2,4-dioxo-1,2,3,4-tetrahydroquinazoline-6-sulfonamide] | 50 to 500 nM
17 | Cc1ncc(Cn2c(=O)c3cc(S(=O)(=O)NC4(CF)COC4)ccc3n(Cc3sc(C)nc3C)c2=O)s1 [Example 28B, 1-((2,4-dimethylthiazol-5-yl)methyl)-N-(3-(fluoromethyl)oxetan-3-yl)-3-((2-methylthiazol-5-yl)methyl)-2,4-dioxo-1,2,3,4-tetrahydroquinazoline-6-sulfonamide] | < 50 nM
18 | CC(C)C(=O)N1CCN(c2cc(S(=O)(=O)NC3COC3)cc3c2cnn3-c2nnc(C(F)F)s2)CC1 [Example 29, 1-(5-(difluoromethyl)-1,3,4-thiadiazol-2-yl)-4-(4-isobutyrylpiperazin-1-yl)-N-(oxetan-3-yl)-1H-indazole-6-sulfonamide] | 50 to 500 nM
19 | CC(C)C(=O)N1CCN(c2cc(S(=O)(=O)NC3(C#N)COC3)cc3c2cnn3-c2nnc(C(F)F)s2)CC1 [Example 30, N-(3-cyanooxetan-3-yl)-1-(5-(difluoromethyl)-1,3,4-thiadiazol-2-yl)-4-(4-isobutyrylpiperazin-1-yl)-1H-indazole-6-sulfonamide] | < 50 nM
20 | CC(C)C(=O)N1CCN(c2cc(S(=O)(=O)NC3(C)COC3)cc3c2cnn3-c2nnc(CS(C)(=O)=O)s2)CC1 [Example 31, 4-(4-isobutyrylpiperazin-1-yl)-N-(3-methyloxetan-3-yl)-1-(5-((methylsulfonyl)methyl)-1,3,4-thiadiazol-2-yl)-1H-indazole-6-sulfonamide] | < 50 nM
21 | CC(C)C(=O)N1CCN(c2cc(S(=O)(=O)NC3(C#N)COC3C)cc3c2cnn3-c2nnc(C(F)F)s2)CC1 (stereo not shown) [Example 32, N-(3-cyano-2-methyloxetan-3-yl)-1-(5-(difluoromethyl)-1,3,4-thiadiazol-2-yl)-4-(4-isobutyrylpiperazin-1-yl)-1H-indazole-6-sulfonamide] | 50 to 500 nM
22 | CC(C)S(=O)(=O)N1CCN(c2cc(S(=O)(=O)NC3(C)COC3)cc3c2cnn3-c2nnc(C(F)F)s2)CC1 [Example 33, 1-(5-(difluoromethyl)-1,3,4-thiadiazol-2-yl)-4-(4-(isopropylsulfonyl)piperazin-1-yl)-N-(3-methyloxetan-3-yl)-1H-indazole-6-sulfonamide] | < 50 nM
23 | O=C(C1CCCC1)N1CCN(c2cc(S(=O)(=O)NC3(CF)COC3)cc3c2cnn3-c2nnc(C(F)F)s2)CC1 [Example 34, 4-(4-(cyclopentanecarbonyl)piperazin-1-yl)-1-(5-(difluoromethyl)-1,3,4-thiadiazol-2-yl)-N-(3-(fluoromethyl)oxetan-3-yl)-1H-indazole-6-sulfonamide] | < 50 nM
24 | CN(CC(F)F)C(=O)N1CCN(c2cc(S(=O)(=O)NC3(C)COC3)cc3c2cnn3-c2nnc(C(F)F)s2)CC1 [Example 37, N-(2,2-difluoroethyl)-4-(1-(5-(difluoromethyl)-1,3,4-thiadiazol-2-yl)-6-(N-(3-methyloxetan-3-yl)sulfamoyl)-1H-indazol-4-yl)-N-methylpiperazine-1-carboxamide] | < 50 nM
25 | N#CC1(NS(=O)(=O)c2cc(N3CCN(C(=O)N4CCCC4)CC3)c3cnn(-c4nnc(C(F)F)s4)c3c2)COC1 [Example 38, N-(3-cyanooxetan-3-yl)-1-(5-(difluoromethyl)-1,3,4-thiadiazol-2-yl)-4-(4-(pyrrolidine-1-carbonyl)piperazin-1-yl)-1H-indazole-6-sulfonamide] | < 50 nM
